The source of these data is publication PMC7170360 (Drug Delivery, 2020).

Data set [1] in a line: Rat pharmacokinetics after intravenous administration. The following applies: Sprague-Dawley, plasma, 1.5 mg/kg. In kind it is in vivo, Sprague-Dawley rats. The protocol: The pharmacokinetics of HES-10-HCPT-SS-Ly micelles and 10-HCPT injection in Sprague-Dawley rats were evaluated in this study (n = 6). Briefly, HES-10-HCPT-SS-Ly micelles and 10-HCPT injection were injected, respectively. The dose of 10-HCPT was 1.5 mg/kg in both groups. 0.2 mL blood was collected 5 min, 10 min, 15 min, 30 min, 60 min, 2 h, 4 h, 6 h, 8 h, 12 h, 24 h, 48 h, and 72 h after administration. The concentration of 10-HCPT in plasma was determined by HPLC–MS/MS method.

Data set [2] deals with Hep-G2 cells. Kind of data set: MTT cytotoxicity assay. Type of data set: cell-based. The following applies: Homo sapiens. The method, then: The in vitro cytotoxicity of HES-10-HCPT-SS-Ly micelles was evaluated by MTT assay and Hep-G2 cell lines were used as model object. The Hep-G2 cells were seeded by using 96-well plates and the cell density was 6 × 10^3. The temperature of cell culture was 37 °C and the concentration of CO2 was 5%. The culture medium was removed after 24 h and the micelle solutions with different concentrations are added. The incubation time was 48 h and 72 h respectively to fully evaluate the relationship between cytotoxicity and culture time. Then, 50 μL MTT (0.25 mg/mL) was added to each well and the supernatant was removed. The precipitated formazan crystals were dissolved by DMSO solution after 4 h. The OD values were determined by using an ELIASA reader and the detection wavelength was 492 nm. In addition, cellular uptake of HES-10-HCPT-SS-Ly micelles was also assessed in Hep-G2 cell line. Similarly, the culture medium was removed and different 10-HCPT preparations were added with concentrations of 1.0 mg/mL 24 h after incubation. The 96-well plate was incubated at room temperature on a plate shaker for 24 h, the cells were then washed three times with PBS solution. […] Then, the concentration of 10-HCPT in Hep-G2 cells was determined by HPLC–MS/MS method.

Data set [3] relates to Hep-G2 cells. Kind of data set: Cellular uptake test (10-HCPT in cells by HPLC-MS/MS). The following applies: pH 7.4, 72 h incubation, compared with HES-10-HCPT micelles and HES-10-HCPT-SS-Ly micelles. Type of data set: cell-based, human. The protocol: The in vitro cytotoxicity of HES-10-HCPT-SS-Ly micelles was evaluated by MTT assay and Hep-G2 cell lines were used as model object. The Hep-G2 cells were seeded by using 96-well plates and the cell density was 6 × 10^3. The temperature of cell culture was 37 °C and the concentration of CO2 was 5%. The culture medium was removed after 24 h and the micelle solutions with different concentrations are added. The incubation time was 48 h and 72 h respectively to fully evaluate the relationship between cytotoxicity and culture time. Then, 50 μL MTT (0.25 mg/mL) was added to each well and the supernatant was removed. The precipitated formazan crystals were dissolved by DMSO solution after 4 h. The OD values were determined by using an ELIASA reader and the detection wavelength was 492 nm. In addition, cellular uptake of HES-10-HCPT-SS-Ly micelles was also assessed in Hep-G2 cell line. Similarly, the culture medium was removed and different 10-HCPT preparations were added with concentrations of 1.0 mg/mL 24 h after incubation. […] Briefly, cells were collected and lysed using a French Pressure Cell, the lysate was clarified by centrifugation, and the supernatant liquid was processed by applying liquid–liquid extraction. Then, the concentration of 10-HCPT in Hep-G2 cells was determined by HPLC–MS/MS method.

In data set [1], `CC[C@@]1(O)C(=O)OCc2c1cc1n(c2=O)Cc2cc3cc(O)ccc3nc2-1` [free 10-HCPT, 10-Hydroxy camptothecin] gave a half-life of 10 min. For the same compound, the IC50 in the data set with Hep-G2 cells [2] (HepG2, culture medium pH 7.4, MTT) is 5.1 µM; with Hep-G2 cells [2] (HepG2, pH 5.5, MTT) it was 4.3 µM. Also, the “cellular uptake by Hep G2 cells” value with Hep-G2 cells [3] is “more easily taken up”.

The term half-life denotes the time needed for the level to fall by half in the phase considered. Read a high half-life as slow decline. Usually IC50 stands for the concentration that inhibits the measured activity by half. High values mean weaker potency, low ones greater potency.
